Assay results reported in the supplement of paper PMC11451515.

System: P12-Ichikawa
Test: cell viability relative to DMSO control; higher = less cytotoxic
Details: 48 h
In short: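 Viability values are per-plate percentages of DMSO wells, with background from cell-free wells. Library compounds in DMSO were pin-dosed, in an 11-point threefold series from 47 μM to 0.79 nM, onto NOMO1 or SEM (500 cells/well) or P12-Ichikawa (1000 cells/well) leukemia cells in 1536-well plates (5 μl). Those cells had been adapted for at least four passages in each medium, and CellTiter-Glo One luminescence was read after 48 h at 37°C.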

[1] = HPLM + 10% dialyzed FBS, 0.000781 µM
[2] = HPLM + 10% dialyzed FBS, 0.00234 µM
[3] = HPLM + 10% dialyzed FBS, 0.00702 µM
[4] = HPLM + 10% dialyzed FBS, 0.0211 µM
[5] = HPLM + 10% dialyzed FBS, 0.0632 µM
[6] = HPLM + 10% dialyzed FBS, 0.19 µM
[7] = HPLM + 10% dialyzed FBS, 0.569 µM
[8] = HPLM + 10% dialyzed FBS, 1.71 µM
[9] = HPLM + 10% dialyzed FBS, 5.12 µM
[10] = HPLM + 10% dialyzed FBS, 15.4 µM
[11] = HPLM + 10% dialyzed FBS, 46.1 µM
[12] = RPMI 5 mM glucose + 10% FBS, 0.000781 µM
[13] = RPMI 5 mM glucose + 10% FBS, 0.00234 µM
[14] = RPMI 5 mM glucose + 10% FBS, 0.00702 µM
[15] = RPMI 5 mM glucose + 10% FBS, 0.0211 µM
[16] = RPMI 5 mM glucose + 10% FBS, 0.0632 µM
[17] = RPMI 5 mM glucose + 10% FBS, 0.19 µM
[18] = RPMI 5 mM glucose + 10% FBS, 0.569 µM
[19] = RPMI 5 mM glucose + 10% FBS, 1.71 µM
[20] = RPMI 5 mM glucose + 10% FBS, 5.12 µM
[21] = RPMI 5 mM glucose + 10% FBS, 15.4 µM
[22] = RPMI 5 mM glucose + 10% FBS, 46.1 µM
[23] = RPMI 5 mM glucose + 10% dialyzed FBS, 0.000781 µM
[24] = RPMI 5 mM glucose + 10% dialyzed FBS, 0.00234 µM
[25] = RPMI 5 mM glucose + 10% dialyzed FBS, 0.00702 µM
[26] = RPMI 5 mM glucose + 10% dialyzed FBS, 0.0211 µM
[27] = RPMI 5 mM glucose + 10% dialyzed FBS, 0.0632 µM
[28] = RPMI 5 mM glucose + 10% dialyzed FBS, 0.19 µM
[29] = RPMI 5 mM glucose + 10% dialyzed FBS, 0.569 µM
[30] = RPMI 5 mM glucose + 10% dialyzed FBS, 1.71 µM
[31] = RPMI 5 mM glucose + 10% dialyzed FBS, 5.12 µM
[32] = RPMI 5 mM glucose + 10% dialyzed FBS, 15.4 µM
[33] = RPMI 5 mM glucose + 10% dialyzed FBS, 46.1 µM

Row | Compound | cell viability [1] [%] | cell viability [2] [%] | cell viability [3] [%] | cell viability [4] [%] | cell viability [5] [%] | cell viability [6] [%] | cell viability [7] [%] | cell viability [8] [%] | cell viability [9] [%] | cell viability [10] [%] | cell viability [11] [%] | cell viability [12] [%] | cell viability [13] [%] | cell viability [14] [%] | cell viability [15] [%] | cell viability [16] [%] | cell viability [17] [%] | cell viability [18] [%] | cell viability [19] [%] | cell viability [20] [%] | cell viability [21] [%] | cell viability [22] [%] | cell viability [23] [%] | cell viability [24] [%] | cell viability [25] [%] | cell viability [26] [%] | cell viability [27] [%] | cell viability [28] [%] | cell viability [29] [%] | cell viability [30] [%] | cell viability [31] [%] | cell viability [32] [%] | cell viability [33] [%]
1 | Cc1cc(OCCC[S+](C)(=O)[O-])cc(C)c1-c1cccc(COc2ccc3c(c2)OC[C@H]3CC(=O)O)c1 | 100 | 104 | 98.1 | 108 | 97 | 94.8 | 97.4 | 93.6 | 91.6 | 94.2 | 68.6 | 105 | 106 | 110 | 103 | 101 | 100 | 98.1 | 84.2 | 84.9 | 86.8 | 49.3 | 93.1 | 96.2 | 102 | 98.5 | 96.1 | 97.7 | 91.1 | 84.3 | 84.7 | 82.4 | 46.1
2 | Cc1nn(C)c(COc2ccc(N3CCN([S+](=O)([O-])N(C)C)CC3)cc2)c1-c1cccc2c(CCCOc3cccc4ccccc34)c(C(=O)O)n(CCN3CCOCC3)c12 | 92.3 | 99.2 | 97.4 | 102 | 103 | 106 | 107 | 110 | 29.9 | 29.2 | 28 | 89.3 | 107 | 101 | 97.7 | 105 | 107 | 109 | 113 | 104 | 109 | 46.6 | 87.5 | 107 | 104 | 106 | 112 | 115 | 120 | 114 | 96.1 | 97.6 | 36.7
3 | C[C@@H]1CCN(C(=O)CC#N)C[C@@H]1N(C)c1ncnc2[nH]ccc12 | 97.1 | 87.1 | 82.4 | 91.3 | 86.7 | 88.5 | 86.2 | 87.7 | 77.5 | 84 | 78.6 | 81.9 | 85.6 | 83.6 | 86.3 | 95.5 | 85.2 | 92.4 | 88.2 | 87.6 | 82.1 | 81.9 | 81.9 | 80.6 | 84.7 | 81.8 | 79.4 | 79.4 | 78.7 | 76.4 | 78.2 | 72.1 | 73.8
4 | Cc1ccc(C(=O)Nc2cccc(C(F)(F)F)c2)cc1-c1ccc2nc(NCCN3CCOCC3)ncc2c1 | 110 | 111 | 112 | 111 | 116 | 109 | 107 | 92.6 | 85 | 64.2 | 42.6 | 105 | 106 | 119 | 115 | 113 | 111 | 113 | 109 | 62.2 | 50.3 | 31.7 | 110 | 107 | 107 | 105 | 116 | 107 | 103 | 92.5 | 73.7 | 49.3 | 30.5
5 | CC(C)=CCC/C(C)=C/CC/C(C)=C/CSc1ccccc1C(=O)O | 103 | 121 | 117 | 113 | 119 | 105 | 91.2 | 83.7 | 90.6 | 61 | 36.4 | 106 | 106 | 111 | 95.7 | 101 | 90 | 82.1 | 67.3 | 60 | 47.9 | 34.4 | 104 | 112 | 120 | 116 | 98.1 | 97.2 | 99.5 | 76.4 | 75.2 | 60 | 39.8
6 | CC(=O)OC[C@H]1O[C@@H]([S-])[C@H](OC(C)=O)[C@@H](OC(C)=O)[C@@H]1OC(C)=O.CCP(CC)CC.[Au+] | 89.2 | 88.1 | 91.2 | 99.2 | 94.1 | 102 | 98.6 | 94.5 | 71.7 | 6.24 | 6.03 | 86.8 | 89.2 | 90.6 | 93.1 | 82.2 | 90.6 | 93.4 | 89.3 | 14.8 | 5.1 | 4.94 | 87.8 | 84.1 | 81.6 | 92.7 | 79.7 | 87.6 | 91.9 | 78.2 | 6.72 | 5.18 | 5.56
7 | O=C([O-])C[C@H](O)C[C@H](O)/C=C/c1c(C2CC2)nc2ccccc2c1-c1ccc(F)cc1 | 107 | 111 | 115 | 110 | 117 | 114 | 110 | 103 | 69.3 | 49.1 | 26.2 | 110 | 117 | 116 | 113 | 124 | 116 | 105 | 87.9 | 52.3 | 19.5 | 14.7 | 113 | 114 | 113 | 107 | 119 | 116 | 115 | 93.6 | 58.2 | 36.9 | 19.3
